Structures are written as SMILES.

T1 sequence (P28845 whole entry): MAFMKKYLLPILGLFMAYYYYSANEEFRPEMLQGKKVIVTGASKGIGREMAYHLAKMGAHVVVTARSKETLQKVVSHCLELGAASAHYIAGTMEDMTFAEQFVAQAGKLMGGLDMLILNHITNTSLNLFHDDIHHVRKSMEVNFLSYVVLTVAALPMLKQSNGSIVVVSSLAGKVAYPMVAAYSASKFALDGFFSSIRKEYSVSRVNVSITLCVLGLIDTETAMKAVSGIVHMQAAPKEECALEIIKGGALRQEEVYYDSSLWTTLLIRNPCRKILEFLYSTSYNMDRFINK

Tested on in the first data set: not given
Assay: not given
The note with it: phase IIa, 28-days, placebo-controlled, two-step hyperinsulinemic clamp studies; cited from earlier work.
In the case of `CNC(=O)c1ccc(-c2ccc(C3(C(=O)N4CC[C@@]5(C4)OC(=O)c4ccccc45)CC3)cc2)cn1` [INCB13739], the safety and tolerability entry is “safe and well tolerated”.

A further data set addresses T1, human full length HSD11β1 (Homo sapiens, UniProt P28845).
T1 construct: transient expression of human full length HSD11β1 expression vector; host or cells: CHO cells, transient transfection
Description: In Vitro HSD11β1 Inhibition Assay. The format is cell-based. The note with it: CHO cells transiently expressing human HSD11β1; 200 nM cortisone+500 uM NADPH overnight; cortisone to cortisol by LC/MS-MS; read-out: 11βHSD1 (IC50). Put shortly: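 Whole-cell assay in CHO cells transiently transfected with full-length human HSD11β1, re-seeded 24 h after transfection. Cells incubated overnight with 200 nM cortisone plus 500 uM NADPH, with or without inhibitor. Cortisone-to-cortisol conversion measured by LC/MS-MS; IC50 (nM) from an 8-point log concentration-inhibition curve.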
As a reminder, the IC50 is the point on the concentration scale where inhibition reaches its midpoint. `O=C(CC(c1ccccc1)c1c[nH]c2cc(Cl)ccc12)N1C2CC3CC1CC(C(=O)O)(C3)C2` (single isomer, unassigned) [Compound 141, 2-[3-(6-chloro-1H-indol-3-yl)-3-phenylpropanoyl]-2-azatricyclo[3.3.1.1^3,7]decane-5-carboxylic acid]: the IC50 fell in the range of 100 to 150 nM.
For `Cc1ccc2[nH]cc(C(C)CC(=O)N3C4CC5(C)CC3CC(O)(C4)C5)c2c1Cl` (centres unmarked) [Compound 219, 3-(4-chloro-5-methyl-1H-indol-3-yl)-1-(5-hydroxy-7-methyl-2-azaadamantan-2-yl)butan-1-one], the IC50 is less than 100 nM.
Consider `CC(CC(=O)N1C2CC3(O)CC1CC(O)(C2)C3)c1c[nH]c2ccc(Cl)c(C3CC3)c12` (centres unmarked) [Compound 163, 3-(5-chloro-4-cyclopropyl-1H-indol-3-yl)-1-(5,7-dihydroxy-2-azatricyclo[3.3.1.1^3,7]dec-2-yl)butan-1-one], for which the IC50 was greater than 250 nM.
On to `Cc1ccnc2[nH]cc(C(C)CC(=O)N3C4CC5CC3CC(O)(C5)C4)c12` (centres unmarked) [Compound 88, 1-(5-hydroxy-2-azatricyclo[3.3.1.1^3,7]dec-2-yl)-3-(4-methyl-1H-pyrrolo[2,3-b]pyridin-3-yl)butan-1-one], for which the IC50 was greater than 250 nM.
For the compound `CC(CC(=O)N1C2CC3CC(C2)C(O)C1C3)c1c[nH]c2ccccc12` (centres unmarked) [Example 18, 1-(4-hydroxy-2-azatricyclo[3.3.1.1^3,7]dec-2-yl)-3-(1H-indol-3-yl)butan-1-one], the IC50 was 100 to 150 nM.
On the same count and under the same terms, with `CC(CC(=O)N1C2CC3CC1CC(C#N)(C3)C2)c1nc2ccccc2s1` (centres unmarked) [Compound 118, 2-[3-(1,3-benzothiazol-2-yl)butanoyl]-2-azatricyclo[3.3.1.1^3,7]decane-5-carbonitrile] the figure was greater than 250 nM.
Take `Cc1cccc2c1c(C(C)CC(=O)N1C3CC4CC1CC(O)(C4)C3)cn2C` (centres unmarked) [Compound 206, 3-(1,4-dimethyl-1H-indol-3-yl)-1-(5-hydroxy-2-azatricyclo[3.3.1.1^3,7]dec-2-yl)butan-1-one]: the IC50 was greater than 250 nM.
Consider `CC(CC(=O)N1C2CC3CC(C2)CC1C3)c1nc2c(Cl)cccc2s1` (centres unmarked) [Compound 119, 1-(2-azatricyclo[3.3.1.1^3,7]dec-2-yl)-3-(4-chloro-1,3-benzothiazol-2-yl)butan-1-one], for which the IC50 was less than 100 nM.
On the same count and under the same terms, with `CC(C)C(CC(=O)N1C2CC3CC1CC(F)(C3)C2)c1c[nH]c2ccccc12` (centres unmarked) [Example 24, 1-(5-fluoro-2-azatricyclo[3.3.1.1^3,7]dec-2-yl)-3-(1H-indol-3-yl)-4-methylpentan-1-one] the figure was greater than 250 nM; with `CC(C)Oc1cccc2[nH]cc(C(C)CC(=O)N3C4CC5CC3CC(O)(C5)C4)c12` (single isomer, unassigned) [Compound 179, 1-(5-hydroxy-2-azatricyclo[3.3.1.1^3,7]dec-2-yl)-3-[4-(propan-2-yloxy)-1H-indol-3-yl]butan-1-one], greater than 250 nM.
Still for that read-out and setting: the figure for `CC(CC(=O)N1C2CC3CC1CC(C#N)(C3)C2)c1c[nH]c2cccc(Cl)c12` (centres unmarked) [Example 59, 2-[3-(4-chloro-1H-indol-3-yl)butanoyl]-2-azatricyclo[3.3.1.1^3,7]decane-5-carbonitrile] is 100 to 150 nM; for `CC(CC(=O)N1C2CC3CC1CC(O)(C3)C2)c1nc2cc(Cl)ccc2s1` (centres unmarked) [Compound 190, 3-(5-chloro-1,3-benzothiazol-2-yl)-1-(5-hydroxy-2-azatricyclo[3.3.1.1^3,7]dec-2-yl)butan-1-one] it is 150 to 200 nM; for `CC(CC(=O)N1C2CC3CC1CC(C(=O)O)(C3)C2)c1c[nH]c2ccccc12` (centres unmarked) [Example 61, 2-[3-(1H-indol-3-yl)butanoyl]-2-azatricyclo[3.3.1.1^3,7]decane-5-carboxylic acid] it is greater than 250 nM.

Source of the values: patent publication US9303016B2, “Derivatives of aza adamantane and uses thereof” (CONNEXIOS LIFE SCIENCES PVT. LTD., priority 2011, dated 2016).
